This note sets out measurements from patent publication US20250320213A1, “Nitrogen-Containing Heterocyclic Compounds” (Pfizer Inc., priority 2024, published 2025).

pEC50, pIC50: −log10 of the molar value. Like-named read-outs stand apart in the source and are kept apart here.

For one assay, the target named is T1, STAT6 (Homo sapiens, UniProt P42226).
T1 construct: stably transfected HaCaT keratinocyte cell line, which expresses NanoLuc luciferase reporter gene under the transcriptional control of the STAT6 responsive promoter; endogenous in cells; host or cells: HaCaT keratinocyte reporter cell line (stably transfected with a NanoLuc reporter)
T1 sequence (P42226 1-847): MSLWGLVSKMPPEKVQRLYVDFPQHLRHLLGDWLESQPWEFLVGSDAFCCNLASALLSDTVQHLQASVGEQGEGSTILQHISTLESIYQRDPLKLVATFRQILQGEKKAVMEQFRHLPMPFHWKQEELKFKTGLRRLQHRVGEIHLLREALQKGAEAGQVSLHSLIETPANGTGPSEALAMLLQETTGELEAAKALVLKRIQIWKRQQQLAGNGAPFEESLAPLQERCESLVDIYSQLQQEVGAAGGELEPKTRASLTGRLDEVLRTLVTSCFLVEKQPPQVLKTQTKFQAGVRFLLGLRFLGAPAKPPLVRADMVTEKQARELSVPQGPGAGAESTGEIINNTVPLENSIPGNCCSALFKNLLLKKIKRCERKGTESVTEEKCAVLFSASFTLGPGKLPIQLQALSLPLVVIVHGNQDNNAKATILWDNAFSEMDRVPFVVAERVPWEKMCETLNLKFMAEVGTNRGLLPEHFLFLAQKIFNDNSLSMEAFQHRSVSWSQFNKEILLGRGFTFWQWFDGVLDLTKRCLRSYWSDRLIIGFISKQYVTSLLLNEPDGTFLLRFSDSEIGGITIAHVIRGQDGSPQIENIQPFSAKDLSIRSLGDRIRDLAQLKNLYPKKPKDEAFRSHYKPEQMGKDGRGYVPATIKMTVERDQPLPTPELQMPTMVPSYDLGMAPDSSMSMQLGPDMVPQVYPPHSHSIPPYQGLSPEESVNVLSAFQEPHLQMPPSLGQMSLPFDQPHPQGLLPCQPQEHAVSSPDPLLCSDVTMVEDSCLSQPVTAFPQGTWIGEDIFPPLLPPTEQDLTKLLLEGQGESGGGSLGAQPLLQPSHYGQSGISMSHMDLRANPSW
Description: STAT6 Reporter Luciferase Assay (IL-13 stimulated HaCaT keratinocyte NanoLuc reporter cells). The format is cell-based. Conditions: read-out: Reporter EC50. The essentials: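 HaCaT IL-13Ra2-promoter NanoLuc reporter; cpd 2 h 37 °C in DMEM/2% HI FBS; IL-13 0.12 nM final, 4 h; Nano-Glo luminescence.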

In assay [1] the test system is CCL17 secretion in peripheral human whole blood. In words: Human Whole Blood (HWB) CCL17 TR-FRET Assay (IL-13 stimulated CCL17 secretion). Format: cell-based. Conditions: 10 ng/mL IL13, 48 hours. In short, it runs like this: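 Measured here: CCL17 in serum by TR-FRET (665/615 nm) after overnight (16 h) room-temperature detection. The blood, heparinized and compound-treated for 2 h, received IL-13 at 10 ng/mL final and was cultured 48 h at 37 °C.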

[2] abbreviates: IL-13 stimulated HaCaT STAT6 NanoLuc reporter cells.
The mark [3] stands for this setting: Homo sapiens, 48 h, human whole blood.
The mark [4] stands for this setting: STAT6 NanoLuc luciferase reporter, IL-13 stimulated HaCaT keratinocyte cells.
Setting [5] is: inhibition of CCL17 secretion in human whole blood.
The mark [6] stands for this setting: Homo sapiens, 48 h, inhibition of CCL17 secretion in human whole blood.

Take `CCn1nc(C(=O)NCc2ccc(NC(=O)N(C)C)cc2)c2c1C(C)CN(c1ncc(C(=O)N(C)C)cn1)C2` (racemic) [Example 531, rac-(R)-5-(5-(dimethylcarbamoyl)pyrimidin-2-yl)-N-(4-(3,3-dimethylureido)benzyl)-1-ethyl-7-methyl-4,5,6,7-tetrahydro-1H-pyrazolo[4,3-c]pyridine-3-carboxamide]: at STAT6 (setting [2]), the pEC50 (as a rule, the EC50 on a negative log10 scale, so that one unit is a factor of ten) is 9.00. For the same compound, in assay [1] (setting [3]), the pIC50 (as a rule, −log10 of the IC50, conventionally taken in molar units) is 7.85.
Regarding `CC1CN(c2ncc(C(=O)N(C)C)cn2)Cc2c(C(=O)NCc3ccc(NC(=O)N(C)C)cc3)nn(C(C)C)c21` (racemic) [Example 532, rac-(R)-5-(5-(dimethylcarbamoyl)pyrimidin-2-yl)-N-(4-(3,3-dimethylureido)benzyl)-1-isopropyl-7-methyl-4,5,6,7-tetrahydro-1H-pyrazolo[4,3-c]pyridine-3-carboxamide], the pEC50 at STAT6 (setting [2]) was 9.00. This compound also had a pIC50 in assay [1] (setting [3]) of 8.40.
As for `CC(C)c1nc(C(=O)NCc2ccc(NC(=O)N(C)C)cc2)c2n1[C@@H](C)CN(c1ccc(C(=O)N(C)C)cc1)C2` (racemic) [Example 537, rac-(R)-7-(4-(Dimethylcarbamoyl)phenyl)-N-(4-(3,3-dimethylureido)benzyl)-3-isopropyl-5-methyl-5,6,7,8-tetrahydroimidazo[1,5-a]pyrazine-1-carboxamide], at STAT6 (setting [2]), the pEC50 is 9.00. This compound also had a pIC50 in assay [1] (setting [3]) of 8.00.
For `CC(C)n1nc(C(=O)NCc2ccc(NC(=O)N(C)C)cc2)c2c1C(C(F)(F)F)CN(c1ccc(C(=O)N(C)C)cn1)C2` (racemic) [Example 546, rac-(R)-5-(5-(Dimethylcarbamoyl)pyridin-2-yl)-N-(4-(3,3-dimethylureido)benzyl)-1-isopropyl-7-(trifluoromethyl)-4,5,6,7-tetrahydro-1H-pyrazolo[4,3-c]pyridine-3-carboxamide] the same measures were 9.52 and 8.30.
For `CC1CN(c2ccc(C(=O)N(C)C)cn2)Cc2c(C(=O)NCc3ccc(NC(=O)N(C)C)cc3)nn(C)c21` (single isomer, unassigned) [Example 7, rel-(R or S)-5-(5-(Dimethylcarbamoyl)pyridin-2-yl)-N-(4-(3,3-dimethylureido)benzyl)-1,7-dimethyl-4,5,6,7-tetrahydro-1H-pyrazolo[4,3-c]pyridine-3-carboxamide], the pEC50 at STAT6 (setting [4]) is 7.48. The pIC50 in assay [1] (setting [5]) was 6.71.
For `CC1CN(c2ccc(C(=O)N(C)C)cn2)Cc2c(C(=O)NCc3ccc(NC(=O)N(C)C)cc3)nn(C)c21` (single isomer, unassigned) [Example 8, rel-(R or S)-5-(5-(Dimethylcarbamoyl)pyridin-2-yl)-N-(4-(3,3-dimethylureido)benzyl)-1,7-dimethyl-4,5,6,7-tetrahydro-1H-pyrazolo[4,3-c]pyridine-3-carboxamide] the same measures were 8.52 and 7.85.
Take `Cc1nc(C(=O)NCc2ccc(NC(=O)N(C)C)cc2)c2n1C(C)CN(c1ccc(C(=O)N(C)C)cn1)C2` (single isomer, unassigned) [Example 53, rel-(R or S)-7-(5-(dimethylcarbamoyl)pyridin-2-yl)-N-(4-(3,3-dimethylureido)benzyl)-3,5-dimethyl-5,6,7,8-tetrahydroimidazo[1,5-a]pyrazine-1-carboxamide]: on STAT6 (setting [4]), the pEC50 is 8.10. In assay [1] (setting [5]), the pIC50 is 7.72.
For `Cc1nc(C(=O)NCc2ccc(NC(=O)N(C)C)cc2)c2n1C(C)CN(c1ccc(C(=O)N(C)C)cn1)C2` (single isomer, unassigned) [Example 54, rel-(R or S)-7-(5-(dimethylcarbamoyl)pyridin-2-yl)-N-(4-(3,3-dimethylureido)benzyl)-3,5-dimethyl-5,6,7,8-tetrahydroimidazo[1,5-a]pyrazine-1-carboxamide], in that order: 6.92 and 6.48.
For `CCC1CN(c2ccc(C(=O)N(C)C)cn2)Cc2c(C(=O)NCc3ccc(NC(=O)N(C)C)cc3)nn(C)c21` (single isomer, unassigned) [Example 58, rel-(R or S)-5-(5-(Dimethylcarbamoyl)pyridin-2-yl)-N-(4-(3,3-dimethylureido)benzyl)-7-ethyl-1-methyl-4,5,6,7-tetrahydro-1H-pyrazolo[4,3-c]pyridine-3-carboxamide], in that order: 7.62 and 6.77.
For `CCn1nc(C(=O)NCc2ccc(NC(=O)N(C)C)cc2)c2c1[C@H](C)CN(c1ccc(C(=O)N(C)C)cn1)C2` (single isomer, unassigned) [Example 63], on STAT6 (setting [4]), the pEC50 was 7.85. The same compound had a pIC50 in assay [1] (setting [6]) of 6.98.
Take `CCC1CN(c2ccc(C(=O)N(C)C)cn2)Cc2c(C(=O)NCc3ccc(NC(=O)N(C)C)cc3)nn(C)c21` (single isomer, unassigned) [Example 78, rel-(R or S)-5-(5-(Dimethylcarbamoyl)pyridin-2-yl)-N-(4-(3,3-dimethylureido)benzyl)-7-ethyl-1-methyl-4,5,6,7-tetrahydro-1H-pyrazolo[4,3-c]pyridine-3-carboxamide]: the pEC50 on STAT6 (setting [4]) was 8.52. This compound showed a pIC50 in assay [1] (setting [5]) of 7.85.
`CCC1CN(c2ccc(C(=O)N(C)C)cn2)Cc2c(C(=O)NCc3ccc(NC(=O)N(C)C)cc3)n[nH]c21` (single isomer, unassigned) [Example 82, rel-(R or S)-5-(5-(dimethylcarbamoyl)pyridin-2-yl)-N-(4-(3,3-dimethylureido)benzyl)-7-ethyl-4,5,6,7-tetrahydro-1H-pyrazolo[4,3-c]pyridine-3-carboxamide]: the pEC50 on STAT6 (setting [4]) was 7.00. Further, in assay [1] (setting [5]), the pIC50 was 6.95.
For `CCC1CN(c2ccc(C(=O)N(C)C)cn2)Cc2c(C(=O)NCc3ccc(NC(=O)N(C)C)cc3)n[nH]c21` (single isomer, unassigned) [Example 83, rel-(R or S)-5-(5-(dimethylcarbamoyl)pyridin-2-yl)-N-(4-(3,3-dimethylureido)benzyl)-7-ethyl-4,5,6,7-tetrahydro-1H-pyrazolo[4,3-c]pyridine-3-carboxamide], in that order: 7.07 and 6.56.
On to `CC(C1CC1)n1nc(C(=O)NCc2ccc(NC(=O)N(C)C)cc2)c2c1CCN(c1ccc(C(=O)N(C)C)cn1)C2` (single isomer, unassigned) [Example 87, rel-(R or S)-1-(1-cyclopropylethyl)-5-(5-(dimethylcarbamoyl)pyridin-2-yl)-N-(4-(3,3-dimethylureido)benzyl)-4,5,6,7-tetrahydro-1H-pyrazolo[4,3-c]pyridine-3-carboxamide], for which the pEC50 on STAT6 (setting [4]) was 7.82. The compound also had a pIC50 in assay [1] (setting [6]) of 6.93.
For `CCn1nc(C(=O)NCc2ccc(NC(=O)N(C)C)cc2)c2c1C[C@H](C)N(c1ccc(C(=O)N(C)C)cn1)C2` (single isomer, unassigned) [Example 111], in that order: 8.52 and 7.89.
For `CC(C)n1nc(C(=O)NCc2ccc(NC(=O)N(C)C)cc2)c2c1[C@H](C)CN(c1ccc(C(=O)N(C)C)cn1)C2` (single isomer, unassigned) [Example 112], in that order: 7.82 and 7.11.
`CCn1nc(C(=O)NCc2ccc(NC(=O)N(C)C)cc2)c2c1C[C@@H](C)N(c1ccc(C(=O)N(C)C)cn1)C2` (single isomer, unassigned) [Example 113]: the pEC50 at STAT6 (setting [4]) was 7.77. In addition, the pIC50 in assay [1] (setting [6]) was 6.79.
`CCC1Cc2c(c(C(=O)NCc3ccc(NC(=O)N(C)C)cc3)nn2CC)CN1c1ccc(C(=O)N(C)C)cn1` (single isomer, unassigned) [Example 117, rel-(R or S)-5-(5-(dimethylcarbamoyl)pyridin-2-yl)-N-(4-(3,3-dimethylureido)benzyl)-1,6-diethyl-4,5,6,7-tetrahydro-1H-pyrazolo[4,3-c]pyridine-3-carboxamide]: the pEC50 on STAT6 (setting [4]) is 8.52. Also, the pIC50 in assay [1] (setting [5]) is 7.89.
